From US20240299385A1 (ReWind Therapeutics NV, priority 2021, published 2024)
pIC50: −log10 of the molar value.

Target: T1, human GPR17 receptor (Homo sapiens, UniProt Q13304)
T1 construct: host or cells: HEK-293
Assay: Calcium mobilization functional assay (Fluo-8, FLIPR TETRA) in HEK-293 hGPR17 (Gα-q assay)
Assay type: cell-based
Conditions: antagonism of MDL29,951 (~EC80) induced Ca2+ signal; cell line (HEK-293 hGPR17 or HEK-293 Suchi5 hGPR17) not given
In short: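 Fluo-8-loaded HEK-293 hGPR17 cells (60 min dye loading, room temperature) were preincubated with compound for twenty minutes, then challenged with agonist MDL29,951 at ~EC80, 500 nM. Intracellular calcium release via Gα-q was recorded as FLIPR fluorescence for a further 2 minutes; compounds tested in duplicate.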

T1 sequence (Q13304 whole entry): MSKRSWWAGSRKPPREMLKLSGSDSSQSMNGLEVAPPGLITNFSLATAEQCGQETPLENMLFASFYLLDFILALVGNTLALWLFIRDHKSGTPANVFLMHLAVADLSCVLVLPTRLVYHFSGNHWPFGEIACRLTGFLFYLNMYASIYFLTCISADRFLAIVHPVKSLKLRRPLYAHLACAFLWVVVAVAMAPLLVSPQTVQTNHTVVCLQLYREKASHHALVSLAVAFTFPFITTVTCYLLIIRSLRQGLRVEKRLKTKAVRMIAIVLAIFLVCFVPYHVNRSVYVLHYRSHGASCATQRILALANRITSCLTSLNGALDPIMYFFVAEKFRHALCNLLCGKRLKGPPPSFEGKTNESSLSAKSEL

Compound	pIC50
COc1ccc(F)c(NS(=O)(=O)c2c[nH]c(-c3ccccn3)c2)c1 [Cpd 196, N-(2-fluoro-5-methoxy-phenyl)-5-(2-pyridyl)-1H-pyrrole-3-sulfonamide]	4.30 to 5.30
O=S(=O)(Nc1cc(F)c(C(F)(F)F)cc1F)c1c[nH]c(-c2ccc(Cl)cn2)c1 [Cpd 197, 5-(5-chloro-2-pyridyl)-N-[2,5-difluoro-4-(trifluoromethyl)phenyl]-1H-pyrrole-3-sulfonamide]	4.30 to 5.30
O=S(=O)(Nc1cc(C(F)(F)F)ncc1F)c1c[nH]c(-c2ccccc2)c1 [Cpd 199, N-[5-fluoro-2-(trifluoromethyl)-4-pyridyl]-5-phenyl-1H-pyrrole-3-sulfonamide]	4.30 to 5.30
CC(=O)c1ccc(NS(=O)(=O)c2c[nH]c(-c3ccccn3)c2)c(F)c1 [Cpd 200, N-(4-acetyl-2-fluoro-phenyl)-5-(2-pyridyl)-1H-pyrrole-3-sulfonamide]	4.30 to 5.30
N#CCc1cnc(NS(=O)(=O)c2c[nH]c(-c3ccccn3)c2)c(F)c1 [Cpd 201, N-[5-(cyanomethyl)-3-fluoro-2-pyridyl]-5-(2-pyridyl)-1H-pyrrole-3-sulfonamide]	4.30 to 5.30
CCOC(=O)c1ccc(NS(=O)(=O)c2c[nH]c(-c3ccccn3)c2)c(F)c1 [Cpd 203]	5.30 to 6.30
N#Cc1ccc(NS(=O)(=O)c2c[nH]cc2C(O)c2ccccc2)c(F)c1 (centres unmarked) [Cpd 207, N-(4-cyano-2-fluoro-phenyl)-4-[hydroxy(phenyl)methyl]-1H-pyrrole-3-sulfonamide]	4.30 to 5.30
N#Cc1ccc(NS(=O)(=O)c2c[nH]cc2Cc2ccc(Cl)cc2)c(F)c1 [Cpd 208, 4-[(4-chlorophenyl)methyl]-N-(4-cyano-2-fluoro-phenyl)-1H-pyrrole-3-sulfonamide]	5.30 to 6.30
COc1ccc(Cc2c[nH]cc2S(=O)(=O)Nc2ccc(C#N)cc2F)cc1 [Cpd 209, N-(4-cyano-2-fluoro-phenyl)-4-[(4-methoxyphenyl)methyl]-1H-pyrrole-3-sulfonamide]	4.30 to 5.30
COc1ccccc1Cc1c[nH]cc1S(=O)(=O)Nc1ccc(C#N)cc1F [Cpd 211, N-(4-cyano-2-fluoro-phenyl)-4-[(2-methoxyphenyl)methyl]-1H-pyrrole-3-sulfonamide]	5.30 to 6.30
O=S(=O)(Nc1cc(F)c(C(F)(F)F)cc1F)c1c[nH]c(-c2cc(Cl)ccn2)c1 [Cpd 214, 5-(4-chloro-2-pyridyl)-N-[2,5-difluoro-4-(trifluoromethyl)phenyl]-1H-pyrrole-3-sulfonamide]	5.30 to 6.30
C#Cc1cnc(NS(=O)(=O)c2c[nH]c(-c3ccccc3)c2)c(F)c1 [Cpd 216, N-(5-ethynyl-3-fluoro-2-pyridyl)-5-phenyl-1H-pyrrole-3-sulfonamide]	5.30 to 6.30
N#Cc1ccc(NS(=O)(=O)c2c[nH]cc2-c2ccc(F)cc2)c(F)c1 [Cpd 217, N-(4-cyano-2-fluoro-phenyl)-4-(4-fluorophenyl)-1H-pyrrole-3-sulfonamide]	4.30 to 5.30
N#Cc1ccc(NS(=O)(=O)c2c[nH]cc2-c2ccc(Cl)cc2)c(F)c1 [Cpd 218, 4-(4-chlorophenyl)-N-(4-cyano-2-fluoro-phenyl)-1H-pyrrole-3-sulfonamide]	5.30 to 6.30
Cc1ccc(-c2c[nH]cc2S(=O)(=O)Nc2ccc(C#N)cc2F)cc1 [Cpd 219, N-(4-cyano-2-fluoro-phenyl)-4-(p-tolyl)-1H-pyrrole-3-sulfonamide]	5.30 to 6.30
COc1cccc(-c2c[nH]cc2S(=O)(=O)Nc2ccc(C#N)cc2F)c1 [Cpd 220, N-(4-cyano-2-fluoro-phenyl)-4-(3-methoxyphenyl)-1H-pyrrole-3-sulfonamide]	5.30 to 6.30
Cc1cccc(-c2c[nH]cc2S(=O)(=O)Nc2ccc(C#N)cc2F)c1 [Cpd 221, N-(4-cyano-2-fluoro-phenyl)-4-(m-tolyl)-1H-pyrrole-3-sulfonamide]	5.30 to 6.30
N#Cc1ccc(NS(=O)(=O)c2c[nH]cc2-c2ccccc2Cl)c(F)c1 [Cpd 222, 4-(2-chlorophenyl)-N-(4-cyano-2-fluoro-phenyl)-1H-pyrrole-3-sulfonamide]	4.30 to 5.30
COc1ccccc1-c1c[nH]cc1S(=O)(=O)Nc1ccc(C#N)cc1F [Cpd 223, N-(4-cyano-2-fluoro-phenyl)-4-(2-methoxyphenyl)-1H-pyrrole-3-sulfonamide]	4.30 to 5.30
COc1nccc(F)c1-c1cc(S(=O)(=O)Nc2ccc(Cl)cc2F)c[nH]1 [Cpd 227, N-(4-chloro-2-fluoro-phenyl)-5-(4-fluoro-2-methoxy-3-pyridyl)-1H-pyrrole-3-sulfonamide]	5.30 to 6.30
N#Cc1ccc(NS(=O)(=O)c2c[nH]cc2-c2ccccn2)c(F)c1 [Cpd 229, N-(4-cyano-2-fluoro-phenyl)-4-(2-pyridyl)-1H-pyrrole-3-sulfonamide]	5.30 to 6.30

Next, values leading:

pIC50	Compound
5.30 to 6.30	N#Cc1ccc(NS(=O)(=O)c2c[nH]cc2Cc2ccccc2Cl)c(F)c1 [Cpd 194, 4-[(2-chlorophenyl)methyl]-N-(4-cyano-2-fluoro-phenyl)-1H-pyrrole-3-sulfonamide]
5.30 to 6.30	N#Cc1ccc(NS(=O)(=O)c2c[nH]cc2C(=O)c2ccccc2)c(F)c1 [Cpd 195, 4-benzoyl-N-(4-cyano-2-fluoro-phenyl)-1H-pyrrole-3-sulfonamide]
5.30 to 6.30	COc1cc(C(F)(F)F)cnc1NS(=O)(=O)c1c[nH]c(-c2ccccn2)c1 [Cpd 198, N-[3-methoxy-5-(trifluoromethyl)-2-pyridyl]-5-(2-pyridyl)-1H-pyrrole-3-sulfonamide]
> 6.30	O=S(=O)(Nc1cc(F)c(Cl)cc1F)c1c[nH]c(-c2ccccn2)c1 [Cpd 202, N-(4-chloro-2,5-difluoro-phenyl)-5-(2-pyridyl)-1H-pyrrole-3-sulfonamide]
> 6.30	O=S(=O)(Nc1cc(F)c(C(F)(F)F)cc1F)c1c[nH]c(-c2ncccc2Cl)c1 [Cpd 204, 5-(3-chloro-2-pyridyl)-N-[2,5-difluoro-4-(trifluoromethyl)phenyl]-1H-pyrrole-3-sulfonamide]
> 6.30	O=S(=O)(Nc1cc(F)c(OC(F)F)cc1F)c1c[nH]c(-c2ccccn2)c1 [Cpd 205, N-[4-(difluoromethoxy)-2,5-difluoro-phenyl]-5-(2-pyridyl)-1H-pyrrole-3-sulfonamide]
> 6.30	N#Cc1ccc(NS(=O)(=O)c2c[nH]cc2Cc2cccc(Cl)c2)c(F)c1 [Cpd 206, 4-[(3-chlorophenyl)methyl]-N-(4-cyano-2-fluoro-phenyl)-1H-pyrrole-3-sulfonamide]
> 6.30	COc1cccc(Cc2c[nH]cc2S(=O)(=O)Nc2ccc(C#N)cc2F)c1 [Cpd 210, N-(4-cyano-2-fluoro-phenyl)-4-[(3-methoxyphenyl)methyl]-1H-pyrrole-3-sulfonamide]
> 6.30	O=S(=O)(Nc1cc(F)c(C(F)(F)F)cc1F)c1c[nH]c(-c2cccc(Cl)n2)c1 [Cpd 215, 5-(6-chloro-2-pyridyl)-N-[2,5-difluoro-4-(trifluoromethyl)phenyl]-1H-pyrrole-3-sulfonamide]
> 6.30	COc1nccc(F)c1-c1cc(S(=O)(=O)Nc2cc(F)c(C(F)(F)F)cc2F)c[nH]1 [Cpd 224, N-[2,5-difluoro-4-(trifluoromethyl)phenyl]-5-(4-fluoro-2-methoxy-3-pyridyl)-1H-pyrrole-3-sulfonamide]
> 6.30	N#Cc1ccc(NS(=O)(=O)c2c[nH]cc2-c2cccc(Cl)c2)c(F)c1 [Cpd 228, 4-(3-chlorophenyl)-N-(4-cyano-2-fluoro-phenyl)-1H-pyrrole-3-sulfonamide]
